We go through ten molecules from ChEMBL document CHEMBL1201862, “PubChem BioAssay data set” (2004).

Test systems include 786-0; A498; BT-549; DU-145; HL-60; HOP-92; HT-29; LOX IMVI; M14; MDA-MB-231; MDA-MB-435; NCI-H226; NCI-H460; NCI-H522; OVCAR-5; RXF 393; SF-295; SF-539; SK-OV-3; SW-620.
Holding throughout (assay): NCI anticancer screen, dose series, 48 h

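Values below derive from 48-hour exposures of cells grown in 96-well plates, with endpoints linearly interpolated between the two concentrations bracketing the appropriate inhibition level. Abbreviation: GI50, concentration required for 50% inhibition of growth.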 Active and inactive are the calls of the source. Cut-off read from the data, not from the text of the source: active = GI50 up to about 1.1 µM and inactive = higher.

`NC(=O)c1csc(-c2ccc(CO)o2)n1`: the GI50 in the experiment with 786-0, in the experiment on A498, in the experiment with BT-549, with DU-145, in the experiment with HL-60 and in the experiment with HOP-92 was > 100 µM (inactive) each time. In addition, the GI50 in the experiment with HT-29, with LOX IMVI, in the experiment with M14, in the experiment on MDA-MB-231, in the experiment on MDA-MB-435 and with NCI-H226 was > 100 µM (inactive) each time. Besides, the GI50 in the experiment on NCI-H460, in the experiment with NCI-H522, with OVCAR-5, in the experiment on RXF 393, with SF-295 and in the experiment with SF-539 was > 100 µM (inactive) throughout. The GI50 with SK-OV-3 and in the experiment with SW-620 was > 100 µM (inactive) each time.

For the molecule `O=C1C(CN2CCOCC2)CCCC1CN1CCOCC1` (stereo not given), the GI50 is 1.16 µM (inactive) with 786-0; 23 µM (inactive) with A498; 1.96 µM (inactive) in the experiment on BT-549; 17.3 µM (inactive) with DU-145; 0.787 µM (active) in the experiment with HL-60; 0.92 µM (active) with HOP-92. Moreover, the GI50 was 1.76 µM (inactive) in the experiment with HT-29; 3.28 µM (inactive) in the experiment on LOX IMVI; 3.44 µM (inactive) with M14; 5.97 µM (inactive) with MDA-MB-231; 14.4 µM (inactive) in the experiment on MDA-MB-435; 20.6 µM (inactive) in the experiment on NCI-H226. Moreover, the GI50 is 24.6 µM (inactive) with NCI-H460; 0.0597 µM (active) in the experiment on NCI-H522; 18.6 µM (inactive) with OVCAR-5; 1.75 µM (inactive) with RXF 393; 33.4 µM (inactive) with SF-295; 3.92 µM (inactive) with SF-539. The GI50 is 32.1 µM (inactive) in the experiment with SK-OV-3 and 0.436 µM (active) in the experiment with SW-620.

As to `COc1cc2oc(-c3ccc4c(c3)OCO4)c(OC)c(=O)c2c(OC)c1O`, the GI50 in the experiment with 786-0 was 10.9 µM (inactive); with A498, 45.4 µM (inactive); in the experiment with BT-549 it was 31.4 µM (inactive); in the experiment with DU-145, > 100 µM (inactive); in the experiment on HL-60, 28.7 µM (inactive); with HOP-92, 13.6 µM (inactive). Besides, the GI50 was > 100 µM (inactive) with HT-29; 32.7 µM (inactive) in the experiment with LOX IMVI; > 100 µM (inactive) in the experiment with M14; 51.6 µM (inactive) in the experiment on MDA-MB-231; 70.3 µM (inactive) in the experiment on MDA-MB-435; > 100 µM (inactive) in the experiment with NCI-H226. Besides, the GI50 is 64.6 µM (inactive) in the experiment with NCI-H460; 21.9 µM (inactive) in the experiment on NCI-H522; > 100 µM (inactive) with OVCAR-5; > 100 µM (inactive) with RXF 393; 41.7 µM (inactive) in the experiment on SF-295; > 100 µM (inactive) in the experiment on SF-539. Besides, the GI50 in the experiment on SK-OV-3 was 39.4 µM (inactive); in the experiment with SW-620, > 100 µM (inactive).

For the molecule `Clc1nc(Cl)nc(NC23CC4CC(CC(C4)C2)C3)n1`, the GI50 in the experiment on 786-0 is 17.3 µM (inactive); in the experiment with A498, > 43.4 µM (inactive); with BT-549 it was 19.3 µM (inactive); in the experiment on DU-145 it was 16.7 µM (inactive); in the experiment with HL-60, 3.44 µM (inactive); in the experiment on HOP-92, 17.2 µM (inactive). Further, the GI50 in the experiment with HT-29 was 17.9 µM (inactive); with LOX IMVI it was 13.4 µM (inactive); in the experiment on M14 it was 18 µM (inactive); in the experiment on MDA-MB-231, 17.9 µM (inactive); in the experiment with MDA-MB-435, 16.2 µM (inactive); in the experiment on NCI-H226, 21 µM (inactive). The GI50 with NCI-H460 is 26.3 µM (inactive); in the experiment on NCI-H522 it was 16.7 µM (inactive); in the experiment on OVCAR-5, 19.5 µM (inactive); with RXF 393, 16.7 µM (inactive); in the experiment on SF-295, 19.7 µM (inactive); in the experiment with SF-539 it was 17.5 µM (inactive). Besides, the results for the GI50 in the experiment with SK-OV-3 and with SW-620 were 32.3 µM (inactive) and 16.7 µM (inactive), respectively.

In the case of `Cc1cc2ccccc2oc(=O)/c1=N\Nc1ccccc1`, the GI50 in the experiment with 786-0 is 25.6 µM (inactive); in the experiment with A498 it was > 100 µM (inactive); in the experiment on BT-549, 78.9 µM (inactive); in the experiment with DU-145, > 100 µM (inactive); in the experiment on HL-60 it was > 100 µM (inactive); in the experiment on HOP-92 it was 73.8 µM (inactive). In addition, the GI50 in the experiment on HT-29 is 64.6 µM (inactive); in the experiment on LOX IMVI, 60.1 µM (inactive); in the experiment with M14, > 100 µM (inactive); with MDA-MB-231 it was 25.6 µM (inactive); in the experiment on MDA-MB-435, > 100 µM (inactive); in the experiment with NCI-H226, 47.9 µM (inactive). For the same molecule, the GI50 with NCI-H460 was 70 µM (inactive); in the experiment with NCI-H522 it was 65.5 µM (inactive); with OVCAR-5 it was > 100 µM (inactive); in the experiment on RXF 393 it was 35.2 µM (inactive); with SF-295, 32.6 µM (inactive); in the experiment on SF-539, 37.8 µM (inactive). Besides, the GI50 is 21.5 µM (inactive) in the experiment with SK-OV-3 and 23 µM (inactive) in the experiment with SW-620.

Turning to `COc1ccc(/C=C(/c2ccccc2)c2c(C)cc(C)c(/C(=C\c3ccc(OC)cc3)c3ccccc3)c2/N=N/c2cc(C)cc(C)c2)cc1`, the GI50 in the experiment on 786-0 is 13.7 µM (inactive); in the experiment on A498, 32.7 µM (inactive); in the experiment on BT-549, 45.3 µM (inactive); with DU-145 it was 25.6 µM (inactive); in the experiment on HL-60, 10.3 µM (inactive); in the experiment with HOP-92 it was 33.6 µM (inactive). Also, the GI50 in the experiment on HT-29 was 9.71 µM (inactive); in the experiment on LOX IMVI it was 24.2 µM (inactive); with M14 it was 44.6 µM (inactive); in the experiment with MDA-MB-231, 6.76 µM (inactive); in the experiment with MDA-MB-435, 14.6 µM (inactive); with NCI-H226, 34.2 µM (inactive). Moreover, the GI50 was 15.5 µM (inactive) in the experiment on NCI-H460; 15 µM (inactive) with NCI-H522; > 84.5 µM (inactive) in the experiment with OVCAR-5; 32.3 µM (inactive) in the experiment on RXF 393; 24.7 µM (inactive) in the experiment with SF-295; 42.1 µM (inactive) with SF-539. Moreover, the GI50 with SK-OV-3 is 41 µM (inactive); with SW-620, 13.5 µM (inactive).

As for `COc1ccc(/C=C2\CCC(CNc3cc(C)on3)C2=O)cc1` (stereo not given), the GI50 in the experiment on 786-0 is > 100 µM (inactive); with A498, > 72.4 µM (inactive); with BT-549, > 78.3 µM (inactive); with DU-145 it was > 83.6 µM (inactive); with HL-60, > 21.5 µM (inactive); with HOP-92, > 100 µM (inactive). The GI50 is > 100 µM (inactive) with HT-29; > 100 µM (inactive) in the experiment with LOX IMVI; > 100 µM (inactive) with M14; > 82 µM (inactive) in the experiment on MDA-MB-231; > 100 µM (inactive) in the experiment with MDA-MB-435; > 100 µM (inactive) in the experiment with NCI-H226. Also, the GI50 with NCI-H460 was > 78.5 µM (inactive); in the experiment with NCI-H522 it was 79.8 µM (inactive); in the experiment on OVCAR-5 it was > 100 µM (inactive); with RXF 393 it was > 21.5 µM (inactive); with SF-295 it was 74.6 µM (inactive); with SF-539, > 100 µM (inactive). Moreover, the GI50 is > 92.5 µM (inactive) with SK-OV-3 and > 100 µM (inactive) with SW-620.

Take `O=c1c(-c2ccccc2Cl)coc2cc(F)ccc12`: the GI50 in the experiment on 786-0 was 30.4 µM (inactive); in the experiment on A498 it was 7.67 µM (inactive); in the experiment on BT-549 it was 14.9 µM (inactive); in the experiment with DU-145, 27 µM (inactive); in the experiment with HL-60, 4.3 µM (inactive); with HOP-92 it was 18.6 µM (inactive). The GI50 in the experiment on HT-29 is 22.5 µM (inactive); in the experiment on LOX IMVI, 13.2 µM (inactive); with M14, 14.3 µM (inactive); in the experiment on MDA-MB-231, 19.4 µM (inactive); in the experiment with MDA-MB-435, 2.1 µM (inactive); in the experiment with NCI-H226, 23.4 µM (inactive). Further, the GI50 in the experiment with NCI-H460 was 37.6 µM (inactive); in the experiment with NCI-H522 it was 10.6 µM (inactive); in the experiment with OVCAR-5 it was 27.1 µM (inactive); in the experiment on RXF 393, 22.1 µM (inactive); with SF-295, 19.4 µM (inactive); with SF-539, 11.9 µM (inactive). Moreover, the GI50 is 45.2 µM (inactive) in the experiment with SK-OV-3 and 30.6 µM (inactive) with SW-620.

As to `C=CC1(CC[C@]2(c3ccc(OC)c(OC)c3)C=[N+]([O-])O[C@H](O[C@@H]3CCCC[C@H]3C(C)(C)c3ccccc3)C2)OCC(C)(C)CO1`, the GI50 with 786-0 is 11.9 µM (inactive); in the experiment with A498, > 45 µM (inactive); with BT-549, 21 µM (inactive); in the experiment on DU-145 it was 13.9 µM (inactive); in the experiment with HL-60 it was 1.97 µM (inactive); in the experiment on HOP-92, 13.5 µM (inactive). Moreover, the GI50 is 9.79 µM (inactive) in the experiment with HT-29; 10.5 µM (inactive) in the experiment with LOX IMVI; 16.3 µM (inactive) in the experiment on M14; 13.5 µM (inactive) with MDA-MB-231; 11.5 µM (inactive) in the experiment with MDA-MB-435; 19.9 µM (inactive) in the experiment on NCI-H226. The GI50 in the experiment on NCI-H460 is 16.5 µM (inactive); in the experiment on NCI-H522 it was 3.11 µM (inactive); in the experiment on OVCAR-5, 16.4 µM (inactive); with RXF 393 it was 12.4 µM (inactive); in the experiment with SF-295 it was 22.1 µM (inactive); in the experiment on SF-539 it was 14.8 µM (inactive). The GI50 was > 44.1 µM (inactive) in the experiment with SK-OV-3 and 22.5 µM (inactive) with SW-620.

Take `O=c1[nH]nc(Cc2ccccc2)n1/N=C/c1ccccc1O`: the GI50 was 41.5 µM (inactive) with 786-0; > 100 µM (inactive) in the experiment with A498; > 100 µM (inactive) in the experiment with BT-549; > 100 µM (inactive) in the experiment on DU-145; > 100 µM (inactive) in the experiment on HL-60; 53.7 µM (inactive) in the experiment on HOP-92. The GI50 was > 100 µM (inactive) with HT-29; > 100 µM (inactive) with LOX IMVI; > 100 µM (inactive) in the experiment with M14; 63.2 µM (inactive) in the experiment with MDA-MB-231; > 100 µM (inactive) with MDA-MB-435; > 100 µM (inactive) with NCI-H226. Besides, the GI50 in the experiment on NCI-H460 is > 100 µM (inactive); in the experiment on NCI-H522, > 100 µM (inactive); in the experiment with OVCAR-5, > 100 µM (inactive); in the experiment on RXF 393, 23.4 µM (inactive); with SF-295, 57.7 µM (inactive); in the experiment on SF-539, > 100 µM (inactive). Besides, the GI50 in the experiment with SK-OV-3 and in the experiment on SW-620 was > 100 µM (inactive) each time.
